Values of other authors, collected in article doi:10.1101/2020.07.01.182659 (bioRxiv, 2020).

| Substance | Km (ACE2) | kcat/Km (ACE2) | affinity to APJR (in words) (APJR) | decrease of potency after cleavage of C-terminal phenylalanine (APJR) | loss of potency on removal of C-terminal lysine (opioid receptors) | ACE2 activity on peptide (in words) (ACE2) |
| --- | --- | --- | --- | --- | --- | --- |
| QRPRLSHKGPMP↓F [Apelin-13] | < 10 µM | > 1e+06 M⁻¹ s⁻¹ | nanomolar affinity | 2–5 fold |  |  |
| YGGFLRRIRPKL↓K [Dynorphin A 1–13] | < 10 µM | > 1e+06 M⁻¹ s⁻¹ |  |  | 90% | good ACE2 substrate |
| YPFVEP↓I [β–Casomorphin] |  |  |  |  |  | good ACE2 substrate |
